Laboratory results: patent publication US20110212100A1, “METHODS FOR MODULATING DEVELOPMENT AND EXPANSION OF IL-17 EXPRESSING CELLS” (priority 2007, published 2011)

System: CD4+ CD25− T cells
Test: CD4+ T cell proliferation, CD25 upregulation, cytokine production and Th1/Th2/iTreg differentiation
Format: cell-based, mouse
Experimental: The dose-response of HF on CD4+ T cell proliferation, activation (i.e. CD25 upregulation) and differentiation to Th1, Th2 and Th17 lineages were evaluated. Purified murine naïve CD4+ CD25− T cells were activated using anti-CD3 (0.3 μg/ml) and anti-CD28 (0.5 μg/ml) antibodies and varying amounts of HF was added to each T cell culture condition (1.25 nM-40 nM). CD4+ T cell proliferation was monitored by CFSE dilution on day 3-post activation and CD25 expression was evaluated by FACS staining 2 days after activation. For T cell differentiation experiments, naïve T cells were activated as above in the presence of Th1 (IL-12 (20 ng/ml) plus anti-IL-4 (10 μg/ml)), Th2 (IL-4 (50 ng/ml) plus anti-IFNγ (0.5 mg/ml)) or Th17 (TGFβ (3 ng/ml) plus IL-6 (30 ng/ml)) polarizing conditions plus titrating amounts of HF (1.25 nM-40 nM) or MAZ1310 (40 nM). The percentage of Th17 cells, (IL-17^+ IFNγ^−) was evaluated on day 3 following activation, whereas the abundance of Th1 cells (IFNγ^+ IL-4) and Th2 cells (IL-4^+ IFNγ^−) was determined 5 days following activation. All cytokine expression was determined by intracellular staining following PMA+Ionomycin+Brefeldin A re-stimulation and all data was normalized to control (MAZ1310)-treated cells. […] Biol., vol. 80:1-8 (2006).
Cytokines, antibodies and T cell culture: Purified CD4^+ CD25^− T cells were activated in vitro as previously described (I. M. Djuretic et al., Nat Immunol 8, 145 (2007)) using 0.3 μg/ml hamster anti-mouse CD3 (clone 145-2C11) (ATCC—Manassas, Va.) and 0.5 μg/ml hamster anti-mouse CD28 (BD Pharmingen, San Jose, Calif.). Activated cell cultures were differentiated using the following combinations of cytokines and antibodies: iTreg=recombinant human TGFβ1 (3 ng/ml; R&D systems, Minneapolis, Minn.), Th17βTGFβ1 (3 ng/ml) plus recombinant mouse IL-6 (30 ng/ml, R&D systems). Th1 and Th2 differentiation was performed as previously described. (I. M. Djuretic et al., Nat Immunol 8, 145 (2007)). Human IL-2 supernatant (National Cancer Institute) was used in culture at 0.01 U/ml and was added at 48 hours-post activation when T cells were split into tissue culture wells lacking CD3 and CD28 antibodies, with the exception of Th17 cultures that were maintained in the absence of IL-2. All reagents were added at the time of T cell activation and again at 48-hours post activation unless indicated otherwise. For some experiments, purified CD4^+ CD25^− T cells, CD8^+ T cells or B cells were labeled with 1 μM CFSE (Invitrogen) prior to activation in accordance with manufacturers instructions.
Detection of cytokine production: Cytokines secreted into media supernatant were measured using the mouse Th1/Th2 cytometric bead array (CBA, BD Pharmingen) in accordance with manufacturers instructions. […]

O=C(CC1NCCCC1O)Cn1cnc2cc(Br)c(Cl)cc2c1=O (racemic) [HF, 7-bromo-6-chloro-3-[3-(3-hydroxy-2-piperidinyl)-2-oxopropyl]-4(3H)-quinazolinone]
concentration inducing general inhibition of T and B cell activation, proliferation and effector function (CD4+ T cell, CD8+ T cell and B220+ B cell, listed as halofuginone): 20 to 40 nM
effect on T cell proliferation, CD25 upregulation or production of IL-2, TNF or IFNγ, in words (low concentrations of HF (1-10 nM)): did not affect
effect on Th1, Th2 or iTreg differentiation (IFNγ, IL-4 or Foxp3 expression), in words (low-dose HF): failed to modulate
